Key:
Details in all cases: 72 h
Caco-2 [1] = experiment: cell viability relative to DMSO; higher = less toxic
Calu-3 [2] = experiment: as above
U2OS [3] = experiment: as above
Vero E6 [4] = experiment: as above
HepG2 [5] = experiment: as above
Caco-2 [6] = experiment: relative viability EC50 (midpoint between 100% and the lowest measured viability); higher = less toxic
Calu-3 [7] = experiment: as above
U2OS [8] = experiment: as above
Vero E6 [9] = experiment: as above
HepG2 [10] = experiment: as above
Caco-2 [11] = experiment: drug sensitivity score (DSS) for viability; higher = more toxic; extreme values may be limits of the assay
Calu-3 [12] = experiment: as above
U2OS [13] = experiment: as above
Vero E6 [14] = experiment: as above
HepG2 [15] = experiment: as above

Row | SMILES | cell viability (Caco-2 [1]; 1 nM) [%] | cell viability (Caco-2 [1]; 10 nM) [%] | cell viability (Caco-2 [1]; 100 nM) [%] | cell viability (Caco-2 [1]; 1000 nM) [%] | cell viability (Caco-2 [1]; 10000 nM) [%] | cell viability (Calu-3 [2]; 1 nM) [%] | cell viability (Calu-3 [2]; 10 nM) [%] | cell viability (Calu-3 [2]; 100 nM) [%] | cell viability (Calu-3 [2]; 1000 nM) [%] | cell viability (Calu-3 [2]; 10000 nM) [%] | cell viability (U2OS [3]; 1 nM) [%] | cell viability (U2OS [3]; 10 nM) [%] | cell viability (U2OS [3]; 100 nM) [%] | cell viability (U2OS [3]; 1000 nM) [%] | cell viability (U2OS [3]; 10000 nM) [%] | cell viability (Vero E6 [4]; 1 nM) [%] | cell viability (Vero E6 [4]; 10 nM) [%] | cell viability (Vero E6 [4]; 100 nM) [%] | cell viability (Vero E6 [4]; 1000 nM) [%] | cell viability (Vero E6 [4]; 10000 nM) [%] | cell viability (HepG2 [5]; 1 nM) [%] | cell viability (HepG2 [5]; 10 nM) [%] | cell viability (HepG2 [5]; 100 nM) [%] | cell viability (HepG2 [5]; 1000 nM) [%] | cell viability (HepG2 [5]; 10000 nM) [%] | relative viability EC50 (Caco-2 [6]) [µM] | relative viability EC50 (Calu-3 [7]) [µM] | relative viability EC50 (U2OS [8]) [µM] | relative viability EC50 (Vero E6 [9]) [µM] | relative viability EC50 (HepG2 [10]) [µM] | drug sensitivity score (Caco-2 [11]) | drug sensitivity score (Calu-3 [12]) | drug sensitivity score (U2OS [13]) | drug sensitivity score (Vero E6 [14]) | drug sensitivity score (HepG2 [15])
1 | COc1nccc(-c2c(-c3ccc(F)cc3)ncn2[C@H]2CC[C@H](O)CC2)n1 | 84.5 | 90.9 | 93.1 | 88.6 | 93.9 | 99.5 | 106 | 82.2 | 81.7 | 85.6 | 95.9 | 102 | 93.5 | 98.7 | 98.8 | 94.7 | 94.3 | 92.7 | 87.5 | 101 | 98.9 | 97.6 | 103 | 104 | 108 | > 10 | > 10 | > 10 | > 10 | > 10 | 0 | 3.8 | 0 | 0 | 0
2 | C[C@@]1(c2cc(-c3cncnc3)c(F)cc2F)CCSC(N)=N1 | 98.7 | 92.8 | 92.3 | 95.1 | 99.4 | 98 | 104 | 102 | 101 | 101 | 102 | 97.5 | 102 | 97.4 | 100 | 105 | 103 | 105 | 101 | 96 | 106 | 112 | 101 | 108 | 97.3 | > 10 | > 10 | > 10 | > 10 | > 10 | 0 | 0 | 0 | 0 | 0
3 | O=C(Nc1ccc(C(F)(F)F)cn1)N1CCN(c2ncccc2C(F)(F)F)CC1 | 97.9 | 99.3 | 97 | 96 | 92.1 | 99.3 | 104 | 93 | 100 | 92.8 | 94.1 | 98.5 | 102 | 99.4 | 100 | 102 | 93.9 | 94.9 | 101 | 103 | 108 | 91.7 | 105 | 98.4 | 101 | > 10 | > 10 | > 10 | > 10 | > 10 | 0 | 0 | 0 | 0 | 0
4 | O=C(Nc1ccccc1Br)N[C@@H]1CCN(c2ccc(C(F)(F)F)cn2)C1 | 86.7 | 97.2 | 97.9 | 98 | 86.9 | 96.1 | 98.5 | 97.1 | 97.4 | 96.8 | 98.9 | 102 | 97.4 | 104 | 94.7 | 108 | 100 | 103 | 99.8 | 96.9 | 103 | 106 | 103 | 97.8 | 99.2 | > 10 | > 10 | > 10 | > 10 | > 10 | 0 | 0 | 0 | 0 | 0
5 | O=C(C[C@H]1CC(c2ccc(F)cc2F)=NO1)N1CCOCC1 (racemic) [CPSI-1306-(+/-)] | 93.7 | 105 | 107 | 90.9 | 104 |  |  |  |  |  | 95.7 | 99.3 | 99.1 | 102 | 104 | 95.6 | 97.4 | 93.6 | 95 | 106 | 101 | 107 | 96.4 | 95.6 | 104 | > 10 |  | > 10 | > 10 | > 10 | 0 |  | 0 | 0 | 0
6 | CCCCCCCCCCCCCCCCCCCCCC(=O)O [AGP-103] | 104 | 90.4 | 96.5 | 106 | 99.9 |  |  |  |  |  | 99.8 | 93.9 | 98.3 | 101 | 102 | 105 | 106 | 100 | 97.9 | 99.1 | 97.6 | 94.8 | 98.5 | 95.5 | 92.7 | > 10 |  | > 10 | > 10 | > 10 | 0 |  | 0 | 0 | 0
7 | COc1cc2c(cc1NS(=O)(=O)c1ccc(Br)cc1C)n(C)c(=O)n2C [OF-1] | 94 | 95.3 | 102 | 86.2 | 78.2 |  |  |  |  |  | 99.1 | 94.6 | 103 | 93 | 88.3 | 105 | 102 | 96.4 | 99.7 | 88 | 96.5 | 101 | 97.1 | 87.8 | 42.3 | > 10 |  | > 10 | > 10 | 1.69 | 2.1 |  | 0.3 | 0.1 | 5.1
8 | CN[C@@H]1[C@@H](O[C@H]2O[C@H](CO)[C@@H](N)[C@H](O)[C@H]2O)O[C@H]2C[C@@H](N)[C@@H](O[C@H]3[C@H](O)[C@@H](O)[C@H](N)C[C@@H]3N)O[C@@H]2[C@@H]1O [apramycin] | 98 | 89 | 104 | 104 | 92.9 | 97.8 | 99.6 | 100 | 91.5 | 74.8 | 105 | 100 | 92.8 | 104 | 99.9 | 102 | 95.3 | 93.2 | 99.9 | 102 | 106 | 98.1 | 107 | 99.3 | 97.5 | > 10 |  | > 10 | > 10 | > 10 | 0 | 2.1 | 0 | 0 | 0
9 | CC(C)(c1ccc(O)cc1)c1ccc(O)cc1 [bisphenol-A] | 92.2 | 111 | 102 | 97.3 | 88.8 |  |  |  |  |  | 101 | 109 | 99.6 | 107 | 102 | 107 | 105 | 99.2 | 98 | 88.6 | 98.7 | 94.4 | 103 | 94.6 | 106 | > 10 |  | > 10 | > 10 | > 10 | 0.1 |  | 0 | 0.1 | 0
10 | O=P1(N(CCCl)CCCl)NCCCO1 (stereo not given) [cyclophosphamide] | 100 | 100 | 95.6 | 86.7 | 98.6 |  |  |  |  |  | 102 | 102 | 101 | 95.5 | 99.2 | 97.6 | 99.8 | 99.4 | 98.2 | 94 | 91.9 | 98.9 | 91.5 | 99.8 | 105 | > 10 |  | > 10 | > 10 | > 10 | 0 |  | 0 | 0 | 0
11 | CNc1cc2[nH]c(=O)n(-c3ccc(NC(=O)NS(=O)(=O)c4ccc(Cl)s4)cc3)c(=O)c2cc1F [elinogrel] | 95.7 | 103 | 97.2 | 98.3 | 101 |  |  |  |  |  | 95.6 | 101 | 100 | 103 | 104 | 94.6 | 95.2 | 95.2 | 95.3 | 100 | 100 | 91.4 | 89.7 | 94.1 | 99.8 | > 10 |  | > 10 | > 10 | > 10 | 0 |  | 0 | 0 | 0
12 | CON [methoxyamine] | 102 | 102 | 99.9 | 96.9 | 100 |  |  |  |  |  | 99.2 | 103 | 96.7 | 103 | 96.4 | 108 | 94.6 | 99.3 | 106 | 106 | 110 | 110 | 102 | 99.7 | 96.8 | > 10 |  | > 10 | > 10 | > 10 | 0 |  | 0 | 0 | 0
13 | COc1ccc2cc([C@H](C)C(=O)O)ccc2c1 [naproxen] | 95.1 | 101 | 102 | 94.9 | 95.3 |  |  |  |  |  | 101 | 102 | 98.4 | 96.8 | 102 | 109 | 97.8 | 98.2 | 101 | 100 | 106 | 103 | 104 | 100 | 99.4 | > 10 | > 10 | > 10 | > 10 | > 10 | 0 | 0 | 0 | 0 | 0
14 | O=C(O)CCCNC(=O)c1cccnc1 [pikamilone] | 99.8 | 98.3 | 98.4 | 95.6 | 99.8 |  |  |  |  |  | 106 | 97.4 | 103 | 99.4 | 104 | 102 | 105 | 102 | 102 | 98.4 | 107 | 113 | 99.8 | 110 | 94.6 | > 10 |  | > 10 | > 10 | > 10 | 0 |  | 0 | 0 | 0
15 | CC(C)(Oc1ccc(Cl)cc1)C(=O)N1CSCC1C(=O)O (stereo not given) [timofibrate] | 87.1 | 99.6 | 95.7 | 98.9 | 103 |  |  |  |  |  | 95.5 | 105 | 98.2 | 103 | 104 | 99.5 | 104 | 96 | 94.8 | 105 | 99 | 102 | 108 | 96.8 | 113 | > 10 |  | > 10 | > 10 | > 10 | 0 |  | 0 | 0 | 0
16 | Cc1cc(Nc2ncnc3ccc(NC4=NC(C)(C)CO4)cc23)ccc1Oc1ccn2ncnc2c1 [tucatinib] | 98.9 | 103 | 99.8 | 92.5 | 52 | 105 | 93.3 | 70.7 | 47.3 | 28.4 | 100 | 104 | 95.3 | 98.2 | 87.9 | 99.4 | 95.8 | 95.1 | 86.9 | 75.6 | 101 | 96 | 103 | 98.4 | 87.1 |  | 0.191 | > 10 | > 10 | > 10 | 3.8 | 13.7 | 0.1 | 2 | 0.2

— the supplement of paper PMC13380429
